Results on 2 molecules are retold here after patent US6613767B1, “Stable aqueous folinate solution” (Pharmachemie B.V., priority 1994, dated 2003).

The nature of series [1]: Accelerated shelf life tests of sodium folinate injection, 40° C./75% RH. To be noted: during autoclaving (121° C. for 7 min). Format: physicochemical. The protocol: Tests were carried out with sodium folinate bulk solutions of 200 ml containing 25, 100, 250 and 400 mg sodium folinate/ml respectively as indicated in Table 1. Each bulk solution was prepared with a 2% excess of sodium folinate, because during autoclaving ca. 2% folinic acid decomposes. Subsquently, 2.15 ml of each formulated solution was used to fill 2R bottles to the exclusion of air. Afterwards, the bottles were then autoclaved at 121° C. for 7 min. The bottles were thereafter stored at 40° C./75% RH (RH=relative humidity). The following analyses were carried out initially at the beginning of the test and after two weeks:
oxygen percentage in the headspace
content of folinic acid and decomposition products.
The results are summarized in the Tables 2-5 for the accelerated shelf life tests of the sodium folinate injection preparation having a content of sodium folinate of 25 mg/ml, 100 mg/ml, 250 mg/ml and 400 mg/ml, respectively. The bottles were stored at 40° C./[…] during the two week time period for the shelf life tests.

For series [2] the following is noted: normal refrigerator temperature of approximately 4° C.; cited from earlier work.

As to `Nc1nc(=O)c2c([nH]1)NC[C@@H](CNc1ccc(C(=O)N[C@@H](CCC(=O)O)C(=O)O)cc1)N2C=O` [folinic acid], in series [1], the “Folinic acid decomposed during autoclaving” value is reported as “ca. 2%”.

Turning to `Nc1nc(=O)c2c([nH]1)NCC(CNc1ccc(C(=O)N[C@@H](CCC(=O)[O-])C(=O)[O-])cc1)N2C=O.[Ca+2]` (some centres unmarked) [Calcium folinate, calcium folinate], the “Concentration at which crystallization takes place” value in series [2] was at least 15000 µg/mL.
